Structures can show the parent of a compound that is named as a salt.
How the values were obtained:
sigma 1 receptor [1] = target: T1, sigma 1 receptor (Cavia porcellus, UniProt Q60492); test: Receptor binding experiment, sigma 1, [3H](+)-pentazocine, membrane of total brains of guinea pigs; design: species or system Hartley guinea pigs; details: [3H](+)-pentazocine (2 nM), 25° C., 120 minutes, 50 mM Tris-HCl pH 7.4; non-specific: 10 μM haloperidol; read-out: Sigma 1 (IC50, concentration of the test drug which inhibits individual binding by 50%)
T1 construct: A membrane specimen prepared from the total brains of guinea pigs; from tissue; host or cells: total brains of Hartley guinea pigs (membrane specimen)
T1 sequence (Q60492 whole entry): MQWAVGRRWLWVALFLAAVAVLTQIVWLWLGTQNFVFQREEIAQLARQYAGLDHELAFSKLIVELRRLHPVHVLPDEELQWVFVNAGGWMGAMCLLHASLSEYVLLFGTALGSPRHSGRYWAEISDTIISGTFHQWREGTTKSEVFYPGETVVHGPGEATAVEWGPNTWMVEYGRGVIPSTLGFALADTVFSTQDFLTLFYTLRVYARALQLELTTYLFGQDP
Protocol: As experimental animals, Hartley guinea pigs were used. […] 121 (1994) using [^3 H] (+)-pentazocine (sigma 1) or [^3 H]1,3-di-o-tolylguanidine (DTG) (sigma 2) as a [^3 H]-labelled ligand.
A membrane specimen prepared from the total brains of guinea pigs, a [^3 H] ligand and a test drug were reacted in 50 mM Tris-HCl buffer (pH 7.4). For examining sigma 1, [^3 H](+)-pentazocine (2 nM) as a [^3 H] ligand was reacted at 25° C. for 120 minutes. For examining sigma 2, [^3 H] DTG (1 nM) as a [^3 H] ligand was reacted in the presence of 10^-7 M (+)-pentazocine at 25° C. for 90 minutes. After the completion of the reaction, the reaction solution was vacuum filtered through a glass filter (GF/B), and the radioactivity of the filter was determined with a liquid scintillation spectrometer.
The binding which occurred in the reaction in the presence 10 μM haloperidol was regarded as non-specific binding, and the difference obtained by subtracting non-specific binding from the total binding was regarded as specific binding. An inhibition curve was obtained by reacting a [^3 H] ligand at a specific concentration with a test drug at varied concentrations under the conditions described above. From this inhibition curve, the concentration of the test drug which inhibits individual binding by 50% (IC50) is obtained.

sigma 1 receptor [2] = details: cited from earlier work; for affinity for sigma 1 receptor: (agonist), Trends in Pharmacological Sciences, Vol. 13, pp. 85-86
humans = details: cited from earlier work

Compound | IC50 (sigma 1 receptor [1]) [nM] | affinity for sigma 1 receptor (sigma 1 receptor [2]) | develop psychotic symptoms in humans (humans) | specificity to and affinity for sigma 1 receptor (sigma 1 receptor [2]; sigma antagonist, background art)
CCCNC(CCC(C)C)Cc1ccc(OC)c(OCCc2ccccc2)c1 (single isomer, unassigned; (-)) [A, (-)-N-propyl-1-(3-methylbutyl)-2-[4-methoxy-3-(2-phenylethoxy)phenyl]ethylamine hydrochloride] | 0.46 | – | – | –
CCCCC(Cc1ccc(OC)c(OCCc2ccccc2)c1)NCCC (single isomer, unassigned; (-)) [B, (-)-N-propyl-1-butyl-2-[4-methoxy-3-(2-phenylethoxy)-phenyl]ethylamine hydrochloride] | 0.73 | – | – | –
CC(C)=CCN1CCC2(C)c3cc(O)ccc3CC1C2C (stereo not shown) [pentazocine] | – | high affinity | develop psychotic symptoms in humans | –
C=CCN1CCC2(C)c3cc(O)ccc3CC1C2C (stereo not shown) [SKF10047, N-arylnormethazocine] | – | high affinity | develop psychotic symptoms in humans | –
C[C@@H]1CN(CCCn2c3ccccc3c3ccccc32)C[C@H](C)N1 [Rimcazole] | – | – | – | not sufficient

Source: patent US5990151A, “Optically active substituted phenylalkylamine derivatives” (Taisho Pharmaceutical Co., Ltd., priority 1995, dated 1999)
